{"source": "patent US20080235824A1", "about": "“Use of Esterase Genes as Selectable Markers for Transforming Plant Cells” (priority 2006, published 2008)", "key": {"[1]": {"system": "geranium petiole explants", "test": "Survival of geranium petiole explants on regeneration medium with detergents", "format": "cell-based, Pelargonium X hortorum", "conditions": "for Survival of geranium petiole explants on regeneration medium: surviving/total explants", "method": "Tween 20, a nonionic, fatty acid ester detergent, was evaluated as a potential selective agent for use in geranium (Pelargonium X hortorum) transformation experiments by placing geranium petiole explants into tissue culture with the addition to Tween 20 to the regeneration (shooting) medium normally used in geranium transformations (Robichon et al., 1995). Tween 20 was added at three concentrations: 1%, 0.1% and 0.01%. Each treatment consisted of 40 sterilized petiole explants placed in four tissue culture plates carrying 10 explants each. Survival of the explants was assayed weekly over four weeks on these media. Potential selective agent Span 20, also a nonionic, fatty acid ester detergent, was similarly evaluated, except that concentrations of 1%, 0.5% and 0.25% were evaluated over a twelve week period of time. The nonionic detergent Triton X-100, which is not a fatty acid ester detergent, was included for comparative purposes."}, "[2]": {"system": "tomato leaf explants", "test": "Survival of tomato leaf explants on regeneration medium with detergents", "format": "cell-based, Lycoperisicon esculentum", "conditions": "1% detergent; for Survival of tomato leaf explants on regeneration medium: surviving/total explants", "method": "Tween 20 was similarly evaluated as a potential selective agent for use in tomato (Lycoperisicon esculentum) transformations by placing tomato leaf explants placed into tissue culture; Tween 20 was added to tomato regeneration (shooting) medium normally used in tomato transformations (Riggs et al., 2001) at a 1% concentration. Each treatment consisted of 40 sterilized leaf explants placed in four tissue culture plates carrying 10 explants each. Survival of the explants was assayed weekly over four weeks on these media."}, "[3]": {"system": "tomato cultivar Micro-Tom leaf explants", "test": "Agrobacterium transformation of tomato with selection on detergent or kanamycin", "format": "cell-based, Lycopersicon esculentum", "conditions": "for No. of independent calli forming shoots / No. of rooted shoots / Transformation frequency (%): tomato Micro-Tom, pIPG768 bovine PGE; for Transformation frequency (%): confirmed by PCR", "source_text": "Transgenic tomato (Lycopersicon esculentum) cultivar “Micro-Tom” plants were created using the Agrobacterium tumefaciens DNA delivery method [Riggs et al., 2001; Sun et al., 2006] using pIPG768. Selection was either on 1% Tween 20 added to both shoot and root regeneration media. As controls for comparative purposes, 100 micrograms/ml kanamycin was used."}, "[4]": {"system": "tobacco cultivar Xanthi leaf explants", "test": "Agrobacterium transformation of tobacco with selection on detergent or kanamycin", "format": "cell-based, Nicotiana tabacum", "conditions": "for Transformation frequency (%): confirmed by PCR", "source_text": "Transgenic tobacco (Nicotiana tabacum) cultivar “Xanthi” plants were created using the Agrobacterium tumefaciens DNA delivery method [Horsch et al., 1985] using pIPG833. Selection was on 1% or on 0.05% Tween 20 added to both shoot and root regeneration media. As a control for comparative purposes, pIPG786 was used (carrying the nptII gene for kanamycin resistance) for transformation and 100 micrograms/ml kanamycin was used for selection.\nTransgenic tobacco (Nicotiana tabacum) cultivar “Xanthi” plants were created using the Agrobacterium tumefaciens DNA delivery method [Horsch et al., 1985] using pIPG833. Selection was on 1% or on 0.05% Span 20 added to both shoot and root regeneration media.\nTransgenic tobacco (Nicotiana tabacum) cultivar “Xanthi” plants were created using the Agrobacterium tumefaciens DNA delivery method [Horsch et al., 1985] using pIPG875. Selection was on 1% Span 20 added to the shoot regeneration medium and 0.05% Span 20 added to the root regeneration medium."}, "[5]": {"system": "rooting tomato plants", "test": "Root growth of rooting tomato plants on 1% Tween 20 medium", "format": "in vivo", "source_text": "The plant on the left, labeled “731”, was transformed using kanamycin selection and the kanamycin resistance gene driven by the 35S promoter on pIPG731 (ie., “empty” vector, without a lipase gene). The plant on the right, labeled “768”, was similarly transformed using kanamycin selection and the kanamycin resistance gene driven by the 35S promoter on pIPG768 (carrying a lipase gene). Both plants were rooted, kanamycin resistant transformants. Both plants, with roots removed to ca. 1-4 mm from the base, were transferred to rooting medium containing 1% Tween 20. After one week, the roots of both plants had grown to about the extent of the pIPG731 transformed plant, and the small ink marks were placed on the plates to indicate the extent of the root growth. Two weeks later, the roots on the plant transformed with pIPG731 had ceased to elongate and its roots started to appear brown at the growing tips, while the roots on the plant transformed with pIPG768 continued growing.\nIn order to test if the rooting medium inhibited or killed nontransgenic tomato that were rooting, regenerating nontransgenic tomato plants that were rooting, as well as transgenic tomato plants carrying pIPG678 that were rooting were placed on 1% Tween 20 medium."}, "[6]": {"system": "tobacco cultivar Xanthi leaf explants", "test": "Agrobacterium transformation of tobacco with selection on detergent or kanamycin", "format": "cell-based, Nicotiana tabacum", "conditions": "pIPG833 bovine PGE, 0.5% Tween, 73 explants"}, "[7]": {"conditions": "1% Tween in shoot and root media, Exp. 1, 253 explants"}, "[8]": {"conditions": "tobacco Xanthi, pIPG833 bovine PGE, 1% Tween, 73 explants"}}, "data": [{"substance": "Tween 20", "values": [{"measurement": "Survival of geranium petiole explants on regeneration medium", "setting": "[1]; 0.01% detergent, Week 1", "value": "33/40"}, {"measurement": "Survival of geranium petiole explants on regeneration medium", "setting": "[1]; 0.01% detergent, Week 2", "value": "27/40"}, {"measurement": "Survival of geranium petiole explants on regeneration medium", "setting": "[1]; 0.01% detergent, Week 3", "value": "20/40"}, {"measurement": "Survival of geranium petiole explants on regeneration medium", "setting": "[1]; 0.01% detergent, Week 4", "value": "0/40"}, {"measurement": "Survival of geranium petiole explants on regeneration medium", "setting": "[1]; 0.1% detergent, Week 1", "value": "31/40"}, {"measurement": "Survival of geranium petiole explants on regeneration medium", "setting": "[1]; 0.1% detergent, Week 2", "value": "10/40"}, {"measurement": "Survival of geranium petiole explants on regeneration medium", "setting": "[1]; 0.1% detergent, Week 3", "value": "0/40"}, {"measurement": "Survival of geranium petiole explants on regeneration medium", "setting": "[1]; 0.1% detergent, Week 4", "value": "0/40"}, {"measurement": "Survival of geranium petiole explants on regeneration medium", "setting": "[1]; 1% detergent, Week 1", "value": "10/40"}, {"measurement": "Survival of geranium petiole explants on regeneration medium", "setting": "[1]; 1% detergent, Week 2", "value": "0/40"}, {"measurement": "Survival of geranium petiole explants on regeneration medium", "setting": "[1]; 1% detergent, Week 3", "value": "0/40"}, {"measurement": "Survival of geranium petiole explants on regeneration medium", "setting": "[1]; 1% detergent, Week 4", "value": "0/40"}, {"measurement": "Killing of geranium explants in tissue culture (in words)", "setting": "[1]; summary of Table 1", "value": "completely killed all geranium explants in four weeks, even at the lowest level (0.01%) tested"}, {"measurement": "Survival of tomato leaf explants on regeneration medium", "setting": "[2]; Week 1", "value": "8/40"}, {"measurement": "Survival of tomato leaf explants on regeneration medium", "setting": "[2]; Week 2", "value": "8/40"}, {"measurement": "Survival of tomato leaf explants on regeneration medium", "setting": "[2]; Week 3", "value": "3/40"}, {"measurement": "Survival of tomato leaf explants on regeneration medium", "setting": "[2]; Week 4", "value": "0/40"}, {"measurement": "Killing of tomato explants in tissue culture (in words)", "setting": "[2]; summary of Table 2", "value": "completely killed all tomato explants in four weeks"}, {"measurement": "Share of tomato leaf material provided with bovine PGE on pIPG768 producing green shoots", "setting": "[3]; regeneration medium with 1% Tween 20", "value": "nearly half"}, {"measurement": "Fate of tomato leaf material provided with empty vector control plasmid", "setting": "[3]; regeneration medium with 1% Tween 20, 30 days of selection", "value": "either died or produced a small amount of brown callus that died"}, {"measurement": "No. of independent calli forming shoots", "setting": "[3]; [7]", "value": 25}, {"measurement": "No. of rooted shoots", "setting": "[3]; [7]", "value": 25}, {"measurement": "Transformation frequency (%)", "setting": "[3]; 1% Tween, Exp. 1, 253 explants", "value": 7, "unit": "%"}, {"measurement": "No. of independent calli forming shoots", "setting": "[3]; 1% Tween, Exp. 2, 204 explants", "value": 15}, {"measurement": "No. of rooted shoots", "setting": "[3]; 1% Tween, Exp. 2, 204 explants", "value": 15}, {"measurement": "Transformation frequency (%)", "setting": "[3]; 1% Tween, Exp. 2, 204 explants", "value": 4, "unit": "%"}, {"measurement": "No. of independent calli forming shoots", "setting": "[3]; 1% Tween, Exp. 3, 275 explants", "value": 48}, {"measurement": "No. of rooted shoots", "setting": "[3]; 1% Tween, Exp. 3, 275 explants", "value": 48}, {"measurement": "Transformation frequency (%)", "setting": "[3]; 1% Tween, Exp. 3, 275 explants", "value": 4, "unit": "%"}, {"measurement": "Tissue provided with pIPG833 producing shoots", "setting": "[4]; regeneration medium with 0.05% detergent", "value": 100, "unit": "%"}, {"measurement": "Tobacco leaf material provided with bovine PGE on pIPG833 producing green shoots", "setting": "[4]; regeneration medium with 1% detergent", "value": 16, "unit": "%"}, {"measurement": "Transformation efficiency", "setting": "[4]; tobacco Xanthi, pIPG833, detergent at the 0.05% level", "value": 6, "unit": "%"}, {"measurement": "No. of independent calli forming shoots", "setting": "[4]; tobacco Xanthi, pIPG833 bovine PGE, 0.5% Tween, 73 explants", "value": 73}, {"measurement": "No. of independent calli forming shoots", "setting": "[4]; tobacco Xanthi, pIPG833 bovine PGE, 1% Tween in shoot and root media, 73 explants", "value": 12}, {"measurement": "No. of rooted shoots", "setting": "[4]; [8]", "value": 12}, {"measurement": "Transformation frequency (%)", "setting": "[4]; [8]", "value": 5, "unit": "%"}, {"measurement": "Transformation frequency (%)", "setting": "[4]; tobacco Xanthi, pIPG833 bovine PGE, 1% Tween, 73 explants, listed as Tween", "value": 5, "unit": "%"}, {"measurement": "Growth of transgenic tomato plants expressing bovine PGE", "setting": "[5]", "value": "did not affect growth"}, {"measurement": "Root growth of nontransgenic rooting tomato plants", "setting": "[5]", "value": "completely and almost immediately inhibited root growth"}, {"measurement": "No. of rooted shoots", "setting": "[6]", "value": 73}, {"measurement": "Transformation frequency (%)", "setting": "[6]; confirmed by PCR", "value": 6, "unit": "%"}]}]}
